Results reported in ChEMBL document CHEMBL2331254, “Pyrrolopyrimidine inhibitors of DNA gyrase B (GyrB) and topoisomerase IV (ParE), Part II: development of inhibitors with broad spectrum, Gram-negative antibacterial activity” (Bioorg Med Chem Lett, 2013).
Values after ≈ are worked out from the molar mass of the structure shown.

Key:
[1] = Inhibition of Escherichia coli parE assessed as release of inorganic phosphate from ATP hydrolysis after 30 mins by coupled spectrophotometric assay
[2] = system: Escherichia coli; assay: Antibacterial activity against Escherichia coli BW25113 harboring deltatolC by broth microdilution method; type: functional
[3] = system: Escherichia coli; assay: Antibacterial activity against permeabilized Escherichia coli IBAS849 by broth microdilution method; type: functional
[4] = system: Escherichia coli; assay: Antibacterial activity against wild type Escherichia coli ATCC 25922 by broth microdilution method; type: functional
[5] = system: Staphylococcus aureus; assay: Antibacterial activity against Staphylococcus aureus ATCC 13709 by broth microdilution method; type: functional
[6] = Inhibition of Francisella tularensis GyrB assessed as release of inorganic phosphate from ATP hydrolysis after 30 mins by coupled spectrophotometric assay
[7] = Inhibition of Francisella tularensis parE assessed as release of inorganic phosphate from ATP hydrolysis after 30 mins by coupled spectrophotometric assay
[8] = Inhibition of Escherichia coli GyrB assessed as release of inorganic phosphate from ATP hydrolysis after 30 mins by coupled spectrophotometric assay
[9] = system: Pseudomonas aeruginosa; assay: Antibacterial activity against Pseudomonas aeruginosa PAO1 by broth microdilution method; type: functional
[10] = system: Acinetobacter baumannii; assay: Antibacterial activity against Acinetobacter baumannii ATCC 19606 by broth microdilution method; type: functional; details: ATCC 19606 = CIP 70.34 = JCM 6841
[11] = system: Klebsiella pneumoniae; assay: Antibacterial activity against Klebsiella pneumoniae ATCC 700603 by broth microdilution method; type: functional
[12] = system: Escherichia coli; assay: Antibacterial activity against wild type Escherichia coli ATCC 25922 by broth microdilution method in presence of 20% mouse serum; type: functional
[13] = system: Haemophilus influenzae; assay: Antibacterial activity against Haemophilus influenzae ATCC 49247 by broth microdilution method; type: functional
[14] = system: Streptococcus pneumoniae; assay: Antibacterial activity against Streptococcus pneumoniae ATCC 51916 by broth microdilution method; type: functional
[15] = system: Staphylococcus aureus; assay: Antibacterial activity against Staphylococcus aureus ATCC 13709 by broth microdilution method in presence of 20% mouse serum; type: functional

SMILES	Ki [1]	MIC [2]	MIC [3]	MIC [4]	MIC [5]	Ki [6]	Ki [7]	Ki [8]	MIC [9]	MIC [10]	MIC [11]	MIC [12]	MIC [13]	MIC [14]	MIC [15]
CCc1[nH]c2nc(Sc3cnc4nccnc4c3)nc(N3C[C@@H]4[C@H](C3)[C@@]4(N)C(N)=O)c2c1Cl	< 1 nM	0.25 µg/mL (≈ 0.519 µM)	2 µg/mL (≈ 4.15 µM)	> 64 µg/mL	0.25 µg/mL (≈ 0.519 µM)	–	–	–	–	–	–	–	–	–	–
CCc1[nH]c2nc(Sc3cccnc3)nc(Cl)c2c1Cl	–	–	> 64 µg/mL	> 64 µg/mL	4 µg/mL (≈ 12.3 µM)	488 nM	–	–	–	–	–	–	–	–	–
CCc1[nH]c2nc(Sc3cnc4nccnc4c3)nc(N3CC(N)C3)c2c1Cl	–	4 µg/mL (≈ 9.69 µM)	8 µg/mL (≈ 19.4 µM)	64 µg/mL (≈ 155 µM)	1 µg/mL (≈ 2.42 µM)	7 nM	5 nM	–	–	–	–	–	–	–	–
CCc1[nH]c2nc(Sc3ccc4c(c3)C(=O)NC4)nc(N3C[C@@H]4[C@@H](N)[C@@H]4C3)c2c1Cl	8 nM	1 µg/mL (≈ 2.27 µM)	4 µg/mL (≈ 9.07 µM)	32 µg/mL (≈ 72.6 µM)	0.5 µg/mL (≈ 1.13 µM)	–	–	4 nM	–	–	–	–	–	–	–
CCc1[nH]c2nc(Sc3cncc(S(=O)(=O)N(C)C)c3)nc(N3C[C@@H]4[C@@H](N)[C@@H]4C3)c2c1Cl	19 nM	4 µg/mL (≈ 8.1 µM)	32 µg/mL (≈ 64.8 µM)	> 64 µg/mL	2 µg/mL (≈ 4.05 µM)	–	–	2 nM	–	–	–	–	–	–	–
CCc1[nH]c2nc(Sc3ccc4ccc(C(=O)O)nc4c3)nc(N3CCC(N)C3)c2c1Cl (configuration not stated)	2 nM	8 µg/mL (≈ 17.1 µM)	> 64 µg/mL	> 64 µg/mL	2 µg/mL (≈ 4.26 µM)	–	–	< 0.5 nM	–	–	–	–	–	–	–
CCc1[nH]c2nc(Sc3ccc4[nH]cc(C(=O)O)c(=O)c4c3)nc(N3CCC(N)C3)c2c1Cl (configuration not stated)	1 nM	> 64 µg/mL	> 64 µg/mL	> 64 µg/mL	> 64 µg/mL	–	–	< 0.5 nM	–	–	–	–	–	–	–
CCc1[nH]c2nc(Sc3ccc4c(N5CCC(N)C5)nc(C(=O)O)nc4c3)nc(N3CCC(N)C3)c2c1Cl (configuration not stated)	1 nM	8 µg/mL (≈ 14.4 µM)	4 µg/mL (≈ 7.22 µM)	8 µg/mL (≈ 14.4 µM)	8 µg/mL (≈ 14.4 µM)	–	–	< 0.5 nM	–	–	–	–	–	–	–
CCc1[nH]c2nc(Sc3ccc4c(N)nc(C)nc4c3)nc(N3CCC(N)C3)c2c1Cl (configuration not stated)	2 nM	2 µg/mL (≈ 4.4 µM)	8 µg/mL (≈ 17.6 µM)	16 µg/mL (≈ 35.2 µM)	2 µg/mL (≈ 4.4 µM)	–	–	< 0.5 nM	–	–	–	–	–	–	–
CCc1[nH]c2nc(Sc3ccc4c(N5CC(N)C5)ncnc4c3)nc(N3CCC(N)C3)c2c1Cl (configuration not stated)	7 nM	4 µg/mL (≈ 8.06 µM)	8 µg/mL (≈ 16.1 µM)	8 µg/mL (≈ 16.1 µM)	16 µg/mL (≈ 32.3 µM)	–	–	< 0.5 nM	–	–	–	–	–	–	–
CCc1[nH]c2nc(Sc3ccc4cc5c([n+]([O-])c4c3)CCNC5)nc(N3CCC(N)C3)c2c1Cl (configuration not stated)	6 nM	4 µg/mL (≈ 8.06 µM)	16 µg/mL (≈ 32.3 µM)	16 µg/mL (≈ 32.3 µM)	2 µg/mL (≈ 4.03 µM)	–	–	< 0.5 nM	–	–	–	–	–	–	–
CCc1[nH]c2nc(Oc3cnc4cccnc4c3)nc(N3C[C@@H]4[C@@H](N)[C@@H]4C3)c2c1Cl	0.9 nM	≤ 0.06 µg/mL	1 µg/mL (≈ 2.37 µM)	4 µg/mL (≈ 9.48 µM)	≤ 0.06 µg/mL	–	0.6 nM	< 0.3 nM	8 µg/mL (≈ 19 µM)	4 µg/mL (≈ 9.48 µM)	32 µg/mL (≈ 75.8 µM)	4 µg/mL	1 µg/mL (≈ 2.37 µM)	≤ 0.06 µg/mL	0.13 µg/mL
CCc1[nH]c2nc(Oc3cnc4ccc[n+]([O-])c4c3)nc(N3CC[C@@H](N)C3)c2c1Cl	4.6 nM	0.5 µg/mL (≈ 1.17 µM)	1 µg/mL (≈ 2.35 µM)	4 µg/mL (≈ 9.39 µM)	0.13 µg/mL (≈ 0.305 µM)	–	1.1 nM	< 0.3 nM	16 µg/mL (≈ 37.6 µM)	8 µg/mL (≈ 18.8 µM)	32 µg/mL (≈ 75.1 µM)	2 µg/mL	4 µg/mL (≈ 9.39 µM)	1 µg/mL (≈ 2.35 µM)	0.13 µg/mL
CCc1[nH]c2nc(Sc3cnc4nccnc4c3)nc(N3CCC4(CCCN4)C3)c2c1Cl (configuration not stated)	35 nM	8 µg/mL (≈ 17.1 µM)	16 µg/mL (≈ 34.3 µM)	> 64 µg/mL	4 µg/mL (≈ 8.57 µM)	6 nM	–	–	–	–	–	–	–	–	–
CCc1[nH]c2nc(Sc3cnc4nccnc4c3)nc(N3CC4CNC4C3)c2c1Cl (configuration not stated)	2 nM	1 µg/mL (≈ 2.28 µM)	2 µg/mL (≈ 4.56 µM)	16 µg/mL (≈ 36.5 µM)	0.5 µg/mL (≈ 1.14 µM)	< 1 nM	–	–	–	–	–	–	–	–	–
CCc1[nH]c2nc(Sc3cnc4nccnc4c3)nc(N3CC4CCNC4C3)c2c1Cl (configuration not stated)	6 nM	2 µg/mL (≈ 4.42 µM)	4 µg/mL (≈ 8.83 µM)	32 µg/mL (≈ 70.6 µM)	1 µg/mL (≈ 2.21 µM)	< 1 nM	–	–	–	–	–	–	–	–	–
CCc1[nH]c2nc(Sc3cnc4nccnc4c3)nc(N3CC4CNCC4C3)c2c1Cl (configuration not stated)	17 nM	8 µg/mL (≈ 17.7 µM)	8 µg/mL (≈ 17.7 µM)	> 64 µg/mL	2 µg/mL (≈ 4.42 µM)	< 1 nM	–	–	–	–	–	–	–	–	–
CCc1[nH]c2nc(Sc3cnc4nccnc4c3)nc(N3C[C@@H]4[C@@H](N)[C@@H]4C3)c2c1Cl	1 nM	0.5 µg/mL (≈ 1.14 µM)	0.5 µg/mL (≈ 1.14 µM)	8 µg/mL (≈ 18.2 µM)	0.13 µg/mL (≈ 0.296 µM)	< 1 nM	–	< 0.5 nM	–	–	–	–	–	–	–
